Measurements: the NIST ThermoML archive (doi:10.1016/j.jct.2011.08.016)

Assay: xn = mol fraction of the nth substance listed
Settings: Liquid, Vibrating tube method

CCCCCCCCCC [decane] + CCCCCCC
mass density [kg/m3]
Settings	x2 = 0.0531	x2 = 0.2594	x2 = 0.5219	x2 = 0.777	x2 = 0.952
343.09 K, 1000 kPa	690.42	–	670.9	656.56	–
343.09 K, 2000 kPa	691.49	–	672.01	657.76	–
343.09 K, 3000 kPa	692.55	–	673.08	658.95	–
343.09 K, 4000 kPa	693.59	–	674.15	660.13	–
343.09 K, 5000 kPa	694.62	–	675.24	661.28	–
343.09 K, 6000 kPa	695.63	–	676.3	662.42	–
343.09 K, 7000 kPa	696.62	–	677.39	663.56	–
343.09 K, 8000 kPa	697.6	–	678.46	664.71	–
343.09 K, 9000 kPa	698.57	–	679.53	665.84	–
343.09 K, 10000 kPa	699.52	–	680.57	666.95	–
343.09 K, 11000 kPa	700.46	–	681.55	668.04	–
343.09 K, 12000 kPa	701.38	–	682.56	669.13	–
343.09 K, 13000 kPa	702.3	–	683.57	670.2	–
343.09 K, 14000 kPa	703.21	–	684.56	671.24	–
343.09 K, 15000 kPa	704.09	–	685.54	672.27	–
343.09 K, 16000 kPa	704.98	–	686.5	673.29	–
343.09 K, 17000 kPa	705.84	–	687.45	674.28	–
343.09 K, 18000 kPa	706.7	–	688.39	675.26	–
343.09 K, 19000 kPa	707.54	–	689.28	676.22	–
343.09 K, 20000 kPa	708.37	–	690.16	677.14	–
343.09 K, 21000 kPa	709.2	–	691.02	678.06	–
343.09 K, 22000 kPa	710	–	691.87	678.95	–
343.09 K, 23000 kPa	710.8	–	692.69	679.82	–
343.09 K, 24000 kPa	711.58	–	693.49	680.67	–
343.09 K, 25000 kPa	712.36	–	694.29	681.49	–
343.11 K, 1000 kPa	–	682.79	–	–	645.16
343.11 K, 2000 kPa	–	683.83	–	–	646.47
343.11 K, 3000 kPa	–	684.89	–	–	647.73
343.11 K, 4000 kPa	–	685.87	–	–	649
343.11 K, 5000 kPa	–	686.9	–	–	650.27
343.11 K, 6000 kPa	–	687.93	–	–	651.49
343.11 K, 7000 kPa	–	688.92	–	–	652.71
343.11 K, 8000 kPa	–	689.92	–	–	653.91
343.11 K, 9000 kPa	–	690.94	–	–	655.08
